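48-hour exposure; five concentrations; linearly interpolated endpoints. Here, GI50 denotes the concentration required for 50% inhibition of growth. At the TGI there is no net growth.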
Legend:
Test in all cases: DTP human tumour cell line panel, 48 h
A549 NSCLC = test system: A549 NSCLC
ACHN renal = test system: ACHN renal
HT29 colon = test system: HT29 colon
IGROV1 ovarian = test system: IGROV1 ovarian
M14 melanoma = test system: M14 melanoma
NCI-H23 lung = test system: NCI-H23 lung
OVCAR-5 ovarian = test system: OVCAR-5 ovarian
SF-268 CNS = test system: SF-268 CNS
SN12C renal = test system: SN12C renal
U251 CNS = test system: U251 CNS
SK-OV-3 ovarian = test system: SK-OV-3 ovarian
MCF7 breast = test system: MCF7 breast

SMILES | TGI (A549 NSCLC) [µM] | TGI (ACHN renal) [µM] | TGI (HT29 colon) [µM] | TGI (IGROV1 ovarian) [µM] | TGI (M14 melanoma) [µM] | TGI (NCI-H23 lung) [µM] | TGI (OVCAR-5 ovarian) [µM] | TGI (SF-268 CNS) [µM] | TGI (SN12C renal) [µM] | TGI (U251 CNS) [µM] | TGI (SK-OV-3 ovarian) [µM] | TGI (MCF7 breast) [µM] | GI50 (NCI-H23 lung) [µM] | GI50 (U251 CNS) [µM]
CC(C)(C)S(=O)OC12CC3CC(CC(C3)C1)C2 (stereo not drawn) | > 100 | > 100 | > 100 | > 100 | > 100 | > 100 | > 100 | > 100 | > 100 | > 100 | – | – | – | –
O=c1[nH]n(Cc2ccccc2Cl)c2ccccc12 | > 100 | > 100 | > 100 | > 100 | > 100 | > 100 | > 100 | > 100 | > 100 | > 100 | – | – | – | –
O=C(CC1C(=O)c2ccccc2C1=C1C(=O)c2ccccc2C1=O)c1ccccc1 (stereo not drawn) | > 100 | > 100 | > 100 | > 100 | > 100 | > 100 | > 100 | > 100 | > 100 | > 100 | > 100 | – | – | –
Cc1cc(N(CCC#N)CCC#N)ccc1C=Nc1ccc(C(=O)NN2C(=O)/C(=C/c3ccc(N(CCC#N)CCC#N)cc3)N=C2c2cc([N+](=O)[O-])ccc2Cl)cc1 | > 100 | > 100 | > 100 | > 100 | > 100 | > 100 | > 100 | > 100 | > 100 | > 100 | > 100 | – | – | –
FC1=C2CCCCCC2SC1(F)F (stereo not drawn) | > 100 | 79.3 | > 100 | > 100 | > 100 | > 100 | > 100 | > 100 | – | – | > 100 | > 100 | – | –
CC1(C)O[C@@H](CBr)C[C@H](C[C@H]2C[C@@H](O)C[C@@H](CCOCc3ccccc3)O2)O1 | 75.7 | 57.4 | – | 42.6 | 50.2 | 36.7 | 38.4 | 39.2 | 79.4 | > 100 | 33.7 | 46.2 | – | –
COCCOC(=O)C(C)=[N+]=[N-] | – | > 100 | > 100 | > 100 | – | > 100 | > 100 | > 100 | > 100 | > 100 | – | > 100 | – | –
N#Cc1c(N2CCOCC2)[nH]c(=O)c(C(c2c(Cl)cccc2Cl)c2c(O)c(C#N)c(N3CCOCC3)[nH]c2=O)c1O | > 100 | 29.6 | 28.9 | 35.3 | 42.9 | 32.8 | 31.9 | 51.1 | 34.5 | 30.4 | – | 34.2 | – | –
C/C=C/[C@H](O[Si](C)(C)C(C)(C)C)[C@@H](O)/C=C/C(=O)OCC | > 100 | 30.2 | 39.2 | 50.4 | – | > 100 | 79.5 | 53.7 | 48.1 | 35.5 | – | 45.2 | – | –
NCc1cc(O)c(O)c(O)c1 | > 100 | > 100 | > 100 | > 100 | > 100 | – | > 100 | > 100 | > 100 | > 100 | > 100 | – | – | –
c1ccc(CC2(c3cc4ccccc4[nH]3)OCCO2)nc1 | > 100 | > 100 | > 100 | > 100 | > 100 | > 100 | > 100 | > 100 | > 100 | > 100 | > 100 | – | – | –
Cc1ccc(NC(=O)C(=O)Cc2cc[n+]([O-])cc2)cc1 | > 100 | > 100 | > 100 | > 100 | > 100 | > 100 | > 100 | > 100 | > 100 | > 100 | > 100 | – | – | –
O=C(NNC(=O)c1ccccc1O)c1ccc(O)cc1 | > 100 | – | > 100 | > 100 | > 100 | – | > 100 | > 100 | > 100 | > 100 | > 100 | > 100 | – | –
Cc1ccc2c(=O)cc(-c3sc4ccccc4c3C)[nH]c2n1 | 85.6 | – | 78.1 | 45.7 | 51 | 48.1 | > 100 | 69.7 | > 100 | > 100 | 71.4 | > 100 | 19.7 | 38.7
O=C(CSC1=NNC2(C(=O)N1)c1ccccc1-c1ccccc12)NC(=S)Nc1ccccc1 | > 10 | > 10 | > 10 | > 10 | > 10 | > 10 | > 10 | > 10 | > 10 | – | > 10 | > 10 | – | –
O=C1c2ccccc2-c2c1c(-c1cccc(Br)c1)nc1ccc3ccccc3c21 | > 100 | > 100 | > 100 | – | > 100 | > 100 | > 100 | > 100 | > 100 | > 100 | > 100 | > 100 | – | –
Cc1cc(-c2nc3cccc(F)c3s2)ccc1N | > 100 | > 100 | > 100 | > 100 | > 100 | – | > 100 | > 86 | > 91.1 | > 100 | > 100 | > 100 | – | –
CC(C)(C)OC(=O)N(CCCCNCc1ccc2ccccc2c1)CCCNCc1ccc2ccccc2c1 | 3.82 | 3.39 | 2.17 | 3.21 | – | 3.42 | 3.22 | 3.29 | 3.32 | 3.49 | 3.56 | – | – | –
CCC1CN2CCC3(c4ccccc4)CC(C(=O)OC)=CC1C23 (stereo not drawn) | 35.8 | 30.4 | 31.7 | 47.3 | 28.2 | 28.9 | 20.6 | 27.7 | 30.4 | 30 | 26.5 | – | – | –
COc1ccc(N=[N+]([O-])c2ccc(OC)cc2)cc1 | > 100 | > 100 | > 100 | > 100 | > 100 | > 100 | > 100 | > 100 | – | > 100 | > 100 | > 100 | – | –
